Data reported in PubChem BioAssay AID328 (DTP/NCI, 2004).
Where “and” joins values, the source holds several entries; their conditions need not be identical. Identical values can stand only once. Toxic doses and inconclusive results are not listed.

Tested on: BDF1 mice, P388 leukemia ip, median survival T/C
Experiment: NCI In Vivo Anticancer Drug Screen. Data for tumor model P388 Leukemia (intraperitoneal) in B6D2F1 (BDF1) mice
Settings: endpoint: median survival time, higher = longer survival
Outline: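 Read-out is survival of treated animals expressed relative to the vehicle group, as a T/C ratio.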

[1] = dose: 100.0 mg/kg/injection, schedule: Q01DX009 (ip), vehicle: Klucel (hydroxypropylcellulose) (HPC)
[2] = dose: 100.0 mg/kg/injection, schedule: Q04DX003 (ip), vehicle: Klucel (hydroxypropylcellulose) (HPC)
[3] = dose: 200.0 mg/kg/injection, schedule: Q01DX009 (ip), vehicle: Klucel (hydroxypropylcellulose) (HPC)
[4] = dose: 400.0 mg/kg/injection, schedule: Q01DX009 (ip), vehicle: Klucel (hydroxypropylcellulose) (HPC)
[5] = dose: 50.0 mg/kg/injection, schedule: Q01DX009 (ip), vehicle: saline with Tween-80
[6] = dose: 100.0 mg/kg/injection, schedule: Q01DX009 (ip), vehicle: saline with Tween-80
[7] = dose: 200.0 mg/kg/injection, schedule: Q01DX009 (ip), vehicle: saline with Tween-80
[8] = dose: 12.5 mg/kg/injection, schedule: Q01DX009 (ip), vehicle: saline with Tween-80
[9] = dose: 25.0 mg/kg/injection, schedule: Q01DX009 (ip), vehicle: saline with Tween-80
[10] = dose: 100.0 mg/kg/injection, schedule: Q01DX009 (ip), vehicle: saline
[11] = dose: 200.0 mg/kg/injection, schedule: Q01DX009 (ip), vehicle: saline
[12] = dose: 25.0 mg/kg/injection, schedule: Q01DX009 (ip), vehicle: Klucel (hydroxypropylcellulose) (HPC)
[13] = dose: 50.0 mg/kg/injection, schedule: Q01DX009 (ip), vehicle: Klucel (hydroxypropylcellulose) (HPC)
[14] = dose: 400.0 mg/kg/injection, schedule: Q01DX001 (ip), vehicle: Klucel (hydroxypropylcellulose) (HPC)
[15] = dose: 12.5 mg/kg/injection, schedule: Q01DX009 (ip), vehicle: Klucel (hydroxypropylcellulose) (HPC)

In the case of `CCOC(=O)c1ccc(NC(=O)CCl)cc1`, the T/C (dose: 6.25 mg/kg/injection, schedule: Q01DX010 (ip), vehicle: saline) is reported as 104 % of control, the T/C (dose: 12.5 mg/kg/injection, schedule: Q01DX010 (ip), vehicle: saline) is reported as 100 % of control and the T/C (dose: 25.0 mg/kg/injection, schedule: Q01DX010 (ip), vehicle: saline) is reported as 100 % of control. The T/C (dose: 50.0 mg/kg/injection, schedule: Q01DX010 (ip), vehicle: saline) was 100 % of control.

With `c1ccc(/C(=N\Nc2nc3ccccc3s2)c2ccncc2)cc1` the T/C [1] was 104 % of control, the T/C [2] was 100 % of control and the T/C [3] was 95 % of control. The T/C (dose: 200.0 mg/kg/injection, schedule: Q04DX003 (ip), vehicle: Klucel (hydroxypropylcellulose) (HPC)) was 105 % of control, the T/C [4] was 100 % of control and the T/C (dose: 400.0 mg/kg/injection, schedule: Q04DX003 (ip), vehicle: Klucel (hydroxypropylcellulose) (HPC)) was 105 % of control.

For `O=C1Nc2ccc(Br)cc2C1=Nc1ccc(Cl)cc1`, the T/C [5] was 101 % of control, the T/C [6] was 105 % of control and the T/C [7] was 118 % of control.

With `CCOC1OCN(C)CC1(C)C` (stereo not drawn) the T/C [8] was 115 % of control, the T/C [9] was 120 % of control and the T/C (dose: 66.0 mg/kg/injection, schedule: Q01DX009 (ip), vehicle: saline) was 115 % of control. The T/C [10] was 119 % of control and the T/C (dose: 150.0 mg/kg/injection, schedule: Q01DX009 (ip), vehicle: saline) was 154 % of control.

For `CCOC(=O)c1ccc(N=CNc2ccc(C(=O)OCC)cc2)cc1`, the T/C [8] was 100 % of control, the T/C [9] was 92 % of control and the T/C (dose: 25.0 mg/kg/injection, schedule: Q04DX003 (ip), vehicle: saline with Tween-80) was 91 % of control. The T/C (dose: 50.0 mg/kg/injection, schedule: Q04DX003 (ip), vehicle: saline with Tween-80) was 87 % of control.

With `CN(C)/N=C1\C(=O)N(CCCl)c2cc(Cl)c(Cl)cc21` the T/C [5] was 97 % of control, the T/C [6] was 99 % of control and the T/C [7] was 90 % of control.

With `Ic1ncnc2nc[nH]c12` the T/C (dose: 75.0 mg/kg/injection, schedule: Q01DX009 (ip), vehicle: Klucel (hydroxypropylcellulose) (HPC)) was 113 % of control, the T/C [10] was 104 % of control and the T/C (dose: 100.0 mg/kg/injection, schedule: Q04DX003 (ip), vehicle: saline with Tween-80) was 95 % of control. For the same compound, the T/C (dose: 150.0 mg/kg/injection, schedule: Q01DX009 (ip), vehicle: Klucel (hydroxypropylcellulose) (HPC)) was 113 % of control, the T/C [11] was 108 % of control and the T/C (dose: 200.0 mg/kg/injection, schedule: Q04DX003 (ip), vehicle: saline with Tween-80) was 104 % of control. For the same compound, the T/C (dose: 300.0 mg/kg/injection, schedule: Q01DX009 (ip), vehicle: Klucel (hydroxypropylcellulose) (HPC)) was 109 % of control, the T/C (dose: 400.0 mg/kg/injection, schedule: Q01DX009 (ip), vehicle: saline) was 100 % of control and the T/C (dose: 400.0 mg/kg/injection, schedule: Q04DX003 (ip), vehicle: saline with Tween-80) was 95 % of control.

For `CC(=O)Nc1c([N+](=O)[O-])ccc(Cl)c1Cl`, the T/C [12] was 104 % of control, the T/C [13] was 87 % of control and the T/C [1] was 100 % of control. For the same compound, the T/C [2] was 100 % of control.

For `C=C1C(C2(C)C(OC(C)=O)CC(=O)OC(C)(COC(C)=O)C2CC(=O)OC)C(OC=O)C(OC(=O)C(O)C(C)CC)C2(C)C(c3ccoc3)CC(=O)C12O` (stereo not drawn), the T/C (dose: 3.75 mg/kg/injection, schedule: Q01DX009 (ip), vehicle: Klucel (hydroxypropylcellulose) (HPC)) was 94 % of control and the T/C (dose: 7.5 mg/kg/injection, schedule: Q01DX009 (ip), vehicle: Klucel (hydroxypropylcellulose) (HPC)) was 93 % of control.

In the case of `CS(=O)(=O)NN`, the T/C (dose: 12.5 mg/kg/injection, schedule: Q01DX009 (ip), vehicle: saline) is reported as 95 % of control, the T/C (dose: 25.0 mg/kg/injection, schedule: Q01DX009 (ip), vehicle: saline) is reported as 95 % of control and the T/C (dose: 37.5 mg/kg/injection, schedule: Q04DX003 (ip), vehicle: saline) is reported as 100 % of control. The T/C (dose: 50.0 mg/kg/injection, schedule: Q01DX009 (ip), vehicle: saline) was 90 % of control and the T/C (dose: 75.0 mg/kg/injection, schedule: Q04DX003 (ip), vehicle: saline) was 90 % of control.

`CC(C)CNS(=O)(=O)c1ncnc2nc[nH]c12` was tested, and the T/C [5] was 109 % of control and the T/C [6] was 109 % of control.

In the case of `CCOC(=S)SCC(=O)Nc1ccccc1`, the T/C [9] is reported as 93 % of control, the T/C [5] is reported as 90 % of control and the T/C [6] is reported as 103 % of control.

`CN1/C(=C/C=C(/N=C(C#N)C#N)c2ccccc2)C(C)(C)c2ccccc21` was tested, and the T/C [5] was 95 % of control, the T/C [6] was 98 % of control and the T/C [7] was 98 % of control.

With `CC(=O)OC12C3CCCC1CCCC2CCC3` (stereo not drawn) the T/C (dose: 100.0 mg/kg/injection, schedule: Q01DX001 (ip), vehicle: Klucel (hydroxypropylcellulose) (HPC)) was 100 % of control, the T/C (dose: 200.0 mg/kg/injection, schedule: Q01DX001 (ip), vehicle: Klucel (hydroxypropylcellulose) (HPC)) was 100 % of control and the T/C [14] was 100 % of control.

For `N#Cc1ccc(/C=C/C(=O)c2ccccc2)cc1`, the T/C [1] was 91 % of control, the T/C [3] was 116 % of control and the T/C [4] was 107 % of control.

`C(=N/NC1=NCCN1)/c1c2ccccc2c(/C=N\NC2=NCCN2)c2ccccc12` was tested, and the T/C (dose: 1.56 mg/kg/injection, schedule: Q04DX002 (ip), vehicle: saline) was 209 % of control, the T/C (dose: 3.12 mg/kg/injection, schedule: Q04DX002 (ip), vehicle: saline) was 229 % of control and the T/C (dose: 6.25 mg/kg/injection, schedule: Q04DX002 (ip), vehicle: saline) was 239 % of control. For the same compound, the T/C (dose: 12.5 mg/kg/injection, schedule: Q04DX002 (ip), vehicle: saline) was 209 % of control, the T/C (dose: 25.0 mg/kg/injection, schedule: Q04DX002 (ip), vehicle: saline) was 229 % of control and the T/C (dose: 50.0 mg/kg/injection, schedule: Q04DX002 (ip), vehicle: saline) was 280 % of control.

With `CC(=O)O[C@@H]1c2c(c3c(=O)c4cccc(O)c4c(=O)c=3c2=[N+]=[N-])[C@H](OC(C)=O)[C@@H](OC(C)=O)[C@]1(C)O` the T/C (dose: 3.0 mg/kg/injection, schedule: Q01DX009 (ip), vehicle: Klucel (hydroxypropylcellulose) (HPC)) was 118 % of control and the T/C (dose: 6.0 mg/kg/injection, schedule: Q01DX009 (ip), vehicle: Klucel (hydroxypropylcellulose) (HPC)) was 105 % of control.

For `O=[N+]([O-])/C=C/c1ccc([N+](=O)[O-])cc1Cl`, the T/C [15] was 109 % of control, the T/C [12] was 109 % of control and the T/C (dose: 25.0 mg/kg/injection, schedule: Q04DX003 (ip), vehicle: Klucel (hydroxypropylcellulose) (HPC)) was 115 % of control. For the same compound, the T/C [13] was 104 % of control, the T/C (dose: 50.0 mg/kg/injection, schedule: Q04DX003 (ip), vehicle: Klucel (hydroxypropylcellulose) (HPC)) was 107 % of control and the T/C [2] was 88 % of control.

For `CCCCCCC(C)NCC(O)COc1cccc(C)c1` (stereo not drawn), the T/C (dose: 3.12 mg/kg/injection, schedule: Q01DX009 (ip), vehicle: Klucel (hydroxypropylcellulose) (HPC)) was 113 % of control, the T/C [15] was 116 % of control and the T/C [12] was 120 % of control.

With `O=C(NS(=O)(=O)c1ccc(Cl)cc1)c1cccc2ccccc12` the T/C [12] was 95 % of control, the T/C [13] was 90 % of control and the T/C [1] was 109 % of control.

With `Cc1c(N)cccc1N` the T/C [8] was 96 % of control and the T/C [9] was 123 % of control.

`C[C@@]1(O)CCCC[C@H]1O` was tested, and the T/C [10] was 100 % of control, the T/C (dose: 100.0 mg/kg/injection, schedule: Q04DX003 (ip), vehicle: saline) was 110 % of control and the T/C [11] was 100 % of control. The T/C (dose: 200.0 mg/kg/injection, schedule: Q04DX003 (ip), vehicle: saline) was 100 % of control and the T/C (dose: 400.0 mg/kg/injection, schedule: Q04DX003 (ip), vehicle: saline) was 100 % of control.

For `O=C(c1ccc(Cl)cc1)n1c(Cl)c(/C=N\Nc2cccc([N+](=O)[O-])c2)c2ccccc21`, the T/C [14] was 89 % of control.

With `COc1cccc2c1C(=O)c1c(O)c3c(c(O)c1C2=O)C[C@@](O)(/C(C)=N/NC(=O)c1cccc([N+](=O)[O-])c1)C[C@@H]3OC1CC(N)C(O)C(C)O1` (stereo partly drawn) the T/C (dose: 0.25 mg/kg/injection, schedule: Q01DX009 (ip), vehicle: water) was 152 % of control, the T/C (dose: 0.5 mg/kg/injection, schedule: Q01DX009 (ip), vehicle: water) was 163 % of control and the T/C (dose: 1.0 mg/kg/injection, schedule: Q01DX009 (ip), vehicle: water) was 166 % of control and 191 % of control. The T/C (dose: 2.0 mg/kg/injection, schedule: Q01DX009 (ip), vehicle: water) was 156 % of control and 214 % of control, the T/C (dose: 4.0 mg/kg/injection, schedule: Q01DX009 (ip), vehicle: water) was 244 % of control and 184 % of control and the T/C (dose: 8.0 mg/kg/injection, schedule: Q01DX009 (ip), vehicle: water) was 169 % of control.
